Results taken from ChEMBL document CHEMBL1926647, “Discovery of 4-aminomethylphenylacetic acids as γ-secretase modulators via a scaffold design approach” (Bioorg Med Chem Lett, 2011).
Active and inactive are the calls of the source. The rule behind the calls is not given here.

Legend:
Mus musculus [1] = experiment: Inhibition of gamma-secretase-mediated cleavage of APP in wild type CF1 mouse brain assessed as inhibition of amyloid beta42 production at 12.5 mg/kg, po after 4 hrs by ELISA; type: functional
Brain = experiment: Drug uptake in rat brain at 30 mg/kg, po after 4 hrs; settings: in vivo
Rattus norvegicus [2] = experiment: Inhibition of gamma-secretase-mediated cleavage of APP in rat brain assessed as inhibition of amyloid beta42 production at 30 mg/kg, po after 4 hrs by ELISA
[3] = Modulation of gamma-secretase expressed in CHO cells co-expressing APP V717F mutant assessed as reduction in amyloid beta42 production after 17 hrs by ELISA; type: cell-based
[4] = Modulation of gamma-secretase expressed in CHO cells co-expressing polyhistidine-tagged APP695NL I-his with FAD-linked Swedish and London mutation assessed as reduction in amyloid beta42 production after 2 hrs by ELISA; type: cell-based
Nucleic Acid = experiment: Ratio of drug level in brain in wild type CF1 mouse to EC50 for gamma-secretase expressed in CHO cells; type: cell-based
[5] = Drug uptake in wild type CF1 mouse brain at 50 mg/kg, po after 4 hrs; type: ADME, organism-based; design: dose 50 mg/kg, route oral; settings: read-out: Drug uptake
Mus musculus [6] = experiment: Inhibition of gamma-secretase-mediated cleavage of APP in wild type CF1 mouse brain assessed as inhibition of amyloid beta42 production at 50 mg/kg, po after 4 hrs by ELISA; type: functional
[7] = Half life in F344 rat at 2 mg/kg; type: ADME, organism-based; design: dose 2 mg/kg; settings: in vivo
[8] = Apparent permeability from apical to basolateral side in human Caco2 cells; type: ADME, cell-based; settings: caco-2
Cytochrome P450 1A2 = target: T1, Cytochrome P450 1A2 (Homo sapiens, UniProt P05177); experiment: Inhibition of human CYP1A2; type: ADME
T1 sequence (P05177 whole entry): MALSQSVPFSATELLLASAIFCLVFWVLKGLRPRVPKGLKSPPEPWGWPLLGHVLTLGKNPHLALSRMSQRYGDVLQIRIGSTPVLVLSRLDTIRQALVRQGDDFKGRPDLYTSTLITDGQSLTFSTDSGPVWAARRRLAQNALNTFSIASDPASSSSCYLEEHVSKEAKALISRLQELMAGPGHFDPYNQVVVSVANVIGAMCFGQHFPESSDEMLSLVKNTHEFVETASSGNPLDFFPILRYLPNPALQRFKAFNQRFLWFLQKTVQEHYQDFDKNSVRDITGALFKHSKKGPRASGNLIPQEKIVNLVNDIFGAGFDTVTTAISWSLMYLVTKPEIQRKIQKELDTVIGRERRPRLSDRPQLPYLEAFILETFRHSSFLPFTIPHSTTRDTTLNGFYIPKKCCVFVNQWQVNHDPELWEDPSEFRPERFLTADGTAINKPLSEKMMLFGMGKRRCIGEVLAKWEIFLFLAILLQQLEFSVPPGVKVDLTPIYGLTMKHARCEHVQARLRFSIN

Cytochrome P450 3A4 = Cytochrome P450 3A4 (Homo sapiens, UniProt P08684); experiment: Inhibition of human CYP3A4; type: ADME
Chain of Cytochrome P450 3A4 (P08684 whole entry): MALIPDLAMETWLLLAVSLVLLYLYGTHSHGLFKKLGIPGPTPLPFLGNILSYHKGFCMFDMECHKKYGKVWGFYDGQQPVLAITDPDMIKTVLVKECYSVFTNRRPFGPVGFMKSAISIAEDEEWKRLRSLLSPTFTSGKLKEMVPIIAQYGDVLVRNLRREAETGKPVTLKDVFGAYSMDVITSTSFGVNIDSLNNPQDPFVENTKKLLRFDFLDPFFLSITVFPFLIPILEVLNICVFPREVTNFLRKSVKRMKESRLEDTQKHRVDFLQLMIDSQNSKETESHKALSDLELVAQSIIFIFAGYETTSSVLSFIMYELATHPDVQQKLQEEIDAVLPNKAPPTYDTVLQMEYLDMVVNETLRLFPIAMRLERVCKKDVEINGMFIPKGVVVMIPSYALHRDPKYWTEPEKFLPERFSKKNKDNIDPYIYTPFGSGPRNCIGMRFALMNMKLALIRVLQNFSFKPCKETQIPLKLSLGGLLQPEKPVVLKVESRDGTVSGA

Rattus norvegicus [9] = experiment: Dose normalised AUC in F344 rat at 2 mg/kg; type: ADME, organism-based; design: dose 2 mg/kg; settings: in vivo
Cytochrome P450 2C19 = Cytochrome P450 2C19 (Homo sapiens, UniProt P33261); experiment: Inhibition of human CYP2C19; type: ADME
Chain of Cytochrome P450 2C19 (P33261 whole entry): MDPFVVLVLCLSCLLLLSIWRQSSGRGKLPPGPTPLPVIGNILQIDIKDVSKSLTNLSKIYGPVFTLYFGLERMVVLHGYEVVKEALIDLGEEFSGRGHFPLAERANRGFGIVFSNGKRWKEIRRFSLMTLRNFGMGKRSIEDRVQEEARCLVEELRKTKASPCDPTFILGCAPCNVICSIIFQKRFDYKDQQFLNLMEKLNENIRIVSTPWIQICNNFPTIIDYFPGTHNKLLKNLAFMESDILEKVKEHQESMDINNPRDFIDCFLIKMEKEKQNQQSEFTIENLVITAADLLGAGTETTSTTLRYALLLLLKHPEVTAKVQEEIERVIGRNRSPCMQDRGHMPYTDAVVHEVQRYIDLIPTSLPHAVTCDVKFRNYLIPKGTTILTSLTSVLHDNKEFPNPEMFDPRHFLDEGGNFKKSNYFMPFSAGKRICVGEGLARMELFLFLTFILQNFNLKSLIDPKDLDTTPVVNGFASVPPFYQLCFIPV

[10] = Drug uptake in wild type CF1 mouse brain at 12.5 mg/kg, po after 4 hrs; type: ADME, organism-based; design: dose 12.5 mg/kg, route oral; settings: read-out: Drug uptake
Mus musculus [11] = experiment: Inhibition of gamma-secretase-mediated cleavage of APP in wild type CF1 mouse brain assessed as inhibition of amyloid beta42 production at 30 mg/kg, po after 4 hrs by ELISA; type: functional; settings: for inhibition in vivo at 30 mg/kg: Mus musculus, CF1, Brain, po, 4 h
[12] = Clearance in dog at 0.5 mg/kg; type: ADME, organism-based, Canis lupus familiaris; design: dose 0.5 mg/kg; settings: in vivo
[13] = Clearance in F344 rat at 2 mg/kg; type: ADME, organism-based; design: dose 2 mg/kg; settings: in vivo
[14] = Ratio of drug level in brain to plasma in wild type CF1 mouse at 30 mg/kg, po after 4 hrs; type: ADME, organism-based; design: dose 30 mg/kg, route oral; settings: read-out: BPR
Homo sapiens = organism: Homo sapiens; experiment: Liver blood flow in human; type: ADME, organism-based
Cytochrome P450 2D6 = Cytochrome P450 2D6 (Homo sapiens, UniProt P10635); experiment: Inhibition of human CYP2D6; type: ADME
Chain of Cytochrome P450 2D6 (P10635 whole entry): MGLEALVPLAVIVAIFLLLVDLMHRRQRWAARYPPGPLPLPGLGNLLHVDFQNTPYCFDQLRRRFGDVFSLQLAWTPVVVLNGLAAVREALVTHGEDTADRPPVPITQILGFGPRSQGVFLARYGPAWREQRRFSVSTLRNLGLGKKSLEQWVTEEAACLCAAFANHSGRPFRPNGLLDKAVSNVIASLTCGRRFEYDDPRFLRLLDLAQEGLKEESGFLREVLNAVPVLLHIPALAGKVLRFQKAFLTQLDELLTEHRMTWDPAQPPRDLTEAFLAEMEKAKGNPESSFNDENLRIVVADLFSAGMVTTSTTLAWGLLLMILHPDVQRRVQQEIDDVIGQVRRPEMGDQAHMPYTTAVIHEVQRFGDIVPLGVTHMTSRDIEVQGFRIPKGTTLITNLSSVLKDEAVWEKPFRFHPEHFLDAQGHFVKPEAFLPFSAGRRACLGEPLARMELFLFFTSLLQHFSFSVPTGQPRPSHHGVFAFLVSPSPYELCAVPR

[15] = Drug uptake in wild type CF1 mouse brain at 30 mg/kg, po after 4 hrs; type: ADME, organism-based; design: dose 30 mg/kg, route oral; settings: read-out: Drug uptake
Cytochrome P450 2C9 = Cytochrome P450 2C9 (Homo sapiens, UniProt P11712); experiment: Inhibition of human CYP2C9; type: ADME
Chain of Cytochrome P450 2C9 (P11712 whole entry): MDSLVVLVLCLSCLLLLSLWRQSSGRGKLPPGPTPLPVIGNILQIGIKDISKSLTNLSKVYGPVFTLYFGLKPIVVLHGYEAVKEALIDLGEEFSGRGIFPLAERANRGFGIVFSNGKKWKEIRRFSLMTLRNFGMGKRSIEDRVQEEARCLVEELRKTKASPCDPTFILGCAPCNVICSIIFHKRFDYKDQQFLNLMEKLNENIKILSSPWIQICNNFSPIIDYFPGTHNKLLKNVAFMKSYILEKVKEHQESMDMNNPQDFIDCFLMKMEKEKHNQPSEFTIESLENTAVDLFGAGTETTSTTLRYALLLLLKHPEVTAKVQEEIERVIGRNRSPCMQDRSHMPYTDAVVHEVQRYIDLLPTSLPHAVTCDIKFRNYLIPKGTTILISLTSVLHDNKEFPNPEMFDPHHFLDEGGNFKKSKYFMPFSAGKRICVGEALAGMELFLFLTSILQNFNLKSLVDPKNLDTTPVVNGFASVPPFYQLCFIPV

[16] = Cmax in dog at 0.5 mg/kg; type: ADME, organism-based, Canis lupus familiaris; design: dose 0.5 mg/kg; settings: in vivo
Caco-2 = experiment: Ratio of permeability from basolateral to apical side to apical to basolateral side in human Caco2 cells; type: ADME, cell-based
Canis familiaris = experiment: Dose normalised AUC in dog at 0.5 mg/kg; type: ADME, organism-based, Canis lupus familiaris; design: dose 0.5 mg/kg; settings: in vivo
[17] = target: Voltage-gated inwardly rectifying potassium channel KCNH2 (Homo sapiens, UniProt Q12809); experiment: Inhibition of human ERG at 10 uM
Chain of Voltage-gated inwardly rectifying potassium channel KCNH2 (Q12809 whole entry): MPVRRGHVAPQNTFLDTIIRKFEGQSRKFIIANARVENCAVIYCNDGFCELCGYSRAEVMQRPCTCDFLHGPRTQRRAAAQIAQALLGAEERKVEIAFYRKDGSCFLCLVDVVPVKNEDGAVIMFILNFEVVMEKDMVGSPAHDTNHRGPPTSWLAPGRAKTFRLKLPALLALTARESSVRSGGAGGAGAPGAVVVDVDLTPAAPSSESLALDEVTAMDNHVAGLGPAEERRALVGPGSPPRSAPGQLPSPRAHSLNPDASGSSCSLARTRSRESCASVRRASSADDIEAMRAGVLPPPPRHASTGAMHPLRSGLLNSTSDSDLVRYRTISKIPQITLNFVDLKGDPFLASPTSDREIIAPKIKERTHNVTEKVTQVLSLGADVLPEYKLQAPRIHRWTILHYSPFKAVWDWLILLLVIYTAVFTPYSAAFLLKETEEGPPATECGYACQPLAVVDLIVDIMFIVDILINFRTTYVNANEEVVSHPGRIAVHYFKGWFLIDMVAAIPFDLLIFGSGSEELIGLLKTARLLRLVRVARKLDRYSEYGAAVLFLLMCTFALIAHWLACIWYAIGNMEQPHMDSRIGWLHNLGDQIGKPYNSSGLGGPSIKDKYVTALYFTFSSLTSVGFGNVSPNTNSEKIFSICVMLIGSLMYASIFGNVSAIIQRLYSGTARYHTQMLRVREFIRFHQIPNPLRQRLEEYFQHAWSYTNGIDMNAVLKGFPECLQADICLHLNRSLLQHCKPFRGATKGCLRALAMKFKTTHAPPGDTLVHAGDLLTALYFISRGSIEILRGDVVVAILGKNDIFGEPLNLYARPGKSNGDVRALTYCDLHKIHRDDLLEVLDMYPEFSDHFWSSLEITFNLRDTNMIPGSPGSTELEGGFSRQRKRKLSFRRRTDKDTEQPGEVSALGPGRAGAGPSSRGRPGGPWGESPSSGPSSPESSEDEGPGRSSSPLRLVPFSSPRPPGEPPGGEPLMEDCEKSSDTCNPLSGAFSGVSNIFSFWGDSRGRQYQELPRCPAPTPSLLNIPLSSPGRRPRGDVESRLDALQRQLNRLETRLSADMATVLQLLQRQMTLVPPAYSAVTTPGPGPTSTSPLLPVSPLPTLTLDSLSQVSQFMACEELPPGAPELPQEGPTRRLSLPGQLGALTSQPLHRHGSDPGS

Rattus norvegicus [18] = organism: Rattus norvegicus; experiment: Liver blood flow in rat; type: ADME, organism-based
[19] = Half life in dog at 0.5 mg/kg; type: ADME, organism-based, Canis lupus familiaris; design: dose 0.5 mg/kg; settings: in vivo
[20] = Drug uptake in wild type CF1 mouse plasma at 30 mg/kg, po after 4 hrs; type: ADME, organism-based; design: dose 30 mg/kg, route oral
MC-IXC/H4 = experiment: Inhibition of Notch intracellular domain in human MC-IXC/H4 cells assessed as reduction in HES1 protein expression at 10 uM after 24 hrs Western blotting; type: cell-based
[21] = Half life in wild type CF1 mouse; type: ADME, organism-based; settings: in vivo
[22] = Clearance in wild type CF1 mouse; type: ADME, organism-based; settings: in vivo
[23] = Drug uptake in wild type CF1 mouse plasma at 50 mg/kg, po after 4 hrs; type: ADME, organism-based; design: dose 50 mg/kg, route oral
[24] = Oral bioavailability in wild type CF1 mouse; type: ADME, organism-based; settings: in vivo

Structure (SMILES): CC(C)(C)CC(c1ccc(CC(=O)O)cc1-c1ccc(C(F)(F)F)cc1)N1CCC(C(F)(F)F)CC1 (single isomer, unassigned; enantiomer 2) [listing 1 of 2 here]
- inhibition (INH) (Mus musculus [1]; 12.5 mg/kg): 30%
- concentration (Brain): 26 µM
- inhibition (INH) (Rattus norvegicus [2]): 30%

Structure (SMILES): CC(C)CCC(c1ccc(CC(=O)O)cc1-c1ccc(C(F)(F)F)cc1)N1CCC(F)CC1 (stereo unspecified)
- EC50 [3]: 3.3 µM

Structure (SMILES): CC(C)CCC(c1ccc(CC(=O)O)cc1-c1ccc(C(F)(F)F)cc1)N1CCC(F)(F)C1 (stereo unspecified)
- EC50 [3]: 3.3 µM

Structure (SMILES): C[C@@H](C(=O)O)c1ccc(-c2ccccc2)c(F)c1 [TARENFLURBIL]
- EC50 [4]: 300 µM

Structure (SMILES): CC(C)CCN(Cc1ccc(CC(=O)O)cc1-c1ccc(C(F)(F)F)cc1)[C@H]1CC[C@H](C(C)(C)C)CC1
- Ratio (Nucleic Acid): 10
- concentration at 4 h [5]: 7 µM
- EC50 [3]: 0.67 µM
- inhibition in vivo at 50 mg/kg (Mus musculus [6]): 24%

Structure (SMILES): CC(C)(C)CC(c1ccc(CC(=O)O)cc1-c1ccc(C(F)(F)F)cc1)N1CCC(C(F)(F)F)CC1 (racemic)
- half-life [7]: 9.6 h
- Papp A→B [8]: 16 ×10⁻⁶ cm/s
- IC50 (Cytochrome P450 1A2): > 10 µM
- IC50 (Cytochrome P450 3A4): > 10 µM
- AUC/dose (Rattus norvegicus [9]): 5495 ng·kg·h/mL/mg
- IC50 (Cytochrome P450 2C19): > 10 µM
- concentration at 4 h [10]: 9 µM
- inhibition (INH) (Mus musculus [11]; 30 mg/kg): 50%
- clearance [12]: 0.6 mL/min/kg
- clearance [13]: 2.5 mL/min/kg
- Kp at 4 h [14]: 1
- EC50 [3]: 0.63 µM
- QH (Homo sapiens): 39%
- IC50 (Cytochrome P450 2D6): > 10 µM
- concentration at 4 h [15]: 32 µM
- inhibition in vivo at 12.5 mg/kg (Mus musculus [1]; Mus musculus, CF1, Brain, po, 4 h): 25%
- IC50 (Cytochrome P450 2C9): > 10 µM
- Cmax [16]: 1120 ng/mL
- Ratio (Caco-2): 1.9
- AUC/dose (Canis familiaris): 28712 ng·kg·h/mL/mg
- inhibition (INH) [17]: Not Active
- QH (Rattus norvegicus [18]): 31%
- half-life [19]: 10.1 h
- concentration at 4 h [20]: 37 µM

Structure (SMILES): CC(C)(C)CC(c1ccc(CC(=O)O)cc1-c1ccc(C(F)(F)F)cc1)N1CCC(C(F)(F)F)CC1 (single isomer, unassigned; enantiomer 2) [listing 2 of 2 here]
- inhibition (MC-IXC/H4): inactive

Structure (SMILES): O=C(O)Cc1ccc(C(CC2CCCCC2)N2CCC(C(F)(F)F)CC2)c(-c2ccc(C(F)(F)F)cc2)c1 (stereo unspecified)
- inhibition in vivo at 30 mg/kg (Mus musculus [11]): 30%
- EC50 [3]: 0.54 µM
- concentration at 4 h [15]: 18 µM
- concentration at 4 h [20]: 25 µM

Structure (SMILES): CC(C)CCC(c1ccc(CC(=O)O)cc1-c1ccc(C(F)(F)F)cc1)N1CCC(C(F)(F)F)CC1 (stereo unspecified)
- half-life [21]: 2.9 h
- clearance [22]: 3.2 mL/min/kg
- concentration at 4 h [5]: 17 µM
- concentration at 4 h [23]: 32 µM
- EC50 [3]: 0.62 µM
- inhibition in vivo at 50 mg/kg (Mus musculus [6]): 35%
- bioavailability [24]: 100%

Structure (SMILES): CC(C)CCN(Cc1ccc(C(CC(C)C)C(=O)O)cc1-c1ccc(C(F)(F)F)cc1)[C@H]1CC[C@H](C(C)(C)C)CC1 (mixture of isomers)
- concentration at 4 h [5]: 0.7 µM
- EC50 [3]: 0.12 µM
- inhibition (Mus musculus [6]): inactive

Structure (SMILES): CC(C)CCC(c1ccc(CC(=O)O)cc1-c1ccc(C(F)(F)F)cc1)N1CCC(C(C)(C)C)CC1 (stereo unspecified)
- EC50 [3]: 1.1 µM

Structure (SMILES): CC(C)CCN(Cc1ccc(CC(=O)O)cc1-c1ccc(C(F)(F)F)nc1)[C@H]1CC[C@H](C(C)(C)C)CC1
- EC50 [3]: 5 µM

Structure (SMILES): O=C(O)Cc1ccc(C(C2CCCCC2)N2CCC(C(F)(F)F)CC2)c(-c2ccc(C(F)(F)F)cc2)c1 (stereo unspecified)
- inhibition in vivo at 30 mg/kg (Mus musculus [11]): 15%
- EC50 [3]: 0.42 µM
- concentration at 4 h [15]: 10 µM
- concentration at 4 h [20]: 23 µM

Structure (SMILES): CC(C)CCN(Cc1ccc(C(=O)O)cc1-c1ccc(C(F)(F)F)cc1)c1ccc(C(F)(F)F)cc1
- EC50 [3]: 5.4 µM
